US11814367B2, “Inhibitors of glycogen synthase 1 (GYS1) and methods of use thereof” (Maze Therapeutics, Inc., priority 2021, dated 2023)

Legend:
[1] = molecular target: hGYS1 enzyme (recombinant hGYS1/GN1 protein) (Homo sapiens (Human), UniProt P13807); test: GYS1 coupled enzyme assay (PK/LDH); format: biochemical; details: hGYS1/GN1 50 nM, UDP-Glucose 0.8 mM, G6P 1 mM; geometric mean of at least 2 runs
[2] = system: hGYS1 enzyme / glycogen synthesis in HeLa cells; test: GYS1 cell based assay (glycogen synthesis, Glucose-glo); parameters: species or system human; details: Homo sapiens, HeLa, 24 h, 24 h incubation, 20 mM glucose, geometric mean of at least 2 runs
How it was run: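 HeLa cells starved 24 h in medium containing only 1× Glutamax were plated onto compound in medium with 20 mM glucose (1% DMSO final) for 24 h, 37 °C, 5% CO2. Acid lysates were Tris-quenched, glucoamylase-digested (pH 5.3, 1 h, 37 °C) and read by Glucose-glo luminescence. IC50 came from Hill fits, as geometric mean of ≥2 runs.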

[3] = molecular target: hGYS2 enzyme (recombinant hGYS2/GN1 protein) (Homo sapiens (Human), UniProt P54840); test: GYS2 coupled enzyme assay (PK/LDH); format: biochemical; details: geometric mean of at least 2 assay runs on separate days, read-out: Avg_IC50
hGYS2 enzyme (recombinant hGYS2/GN1 protein), sequence (P54840 whole entry): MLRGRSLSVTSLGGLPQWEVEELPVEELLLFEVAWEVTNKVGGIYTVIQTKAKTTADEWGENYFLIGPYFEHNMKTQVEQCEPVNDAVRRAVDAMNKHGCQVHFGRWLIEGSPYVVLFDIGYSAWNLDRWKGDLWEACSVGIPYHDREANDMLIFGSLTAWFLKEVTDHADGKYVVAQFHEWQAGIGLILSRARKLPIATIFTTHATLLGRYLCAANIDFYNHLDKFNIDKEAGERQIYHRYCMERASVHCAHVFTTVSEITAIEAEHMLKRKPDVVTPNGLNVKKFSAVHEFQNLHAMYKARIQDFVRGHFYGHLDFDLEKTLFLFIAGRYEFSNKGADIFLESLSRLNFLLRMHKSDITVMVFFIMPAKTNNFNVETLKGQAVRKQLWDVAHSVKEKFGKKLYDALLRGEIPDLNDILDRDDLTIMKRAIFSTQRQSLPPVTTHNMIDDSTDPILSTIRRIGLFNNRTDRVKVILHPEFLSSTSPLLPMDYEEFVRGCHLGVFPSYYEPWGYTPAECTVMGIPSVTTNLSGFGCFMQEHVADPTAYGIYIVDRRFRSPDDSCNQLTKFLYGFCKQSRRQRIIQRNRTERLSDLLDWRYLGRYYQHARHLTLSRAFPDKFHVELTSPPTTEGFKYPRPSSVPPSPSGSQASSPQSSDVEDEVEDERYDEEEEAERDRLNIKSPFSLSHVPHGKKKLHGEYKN
hGYS2 enzyme (recombinant hGYS2/GN1 protein), sequence (P46976 whole entry partner): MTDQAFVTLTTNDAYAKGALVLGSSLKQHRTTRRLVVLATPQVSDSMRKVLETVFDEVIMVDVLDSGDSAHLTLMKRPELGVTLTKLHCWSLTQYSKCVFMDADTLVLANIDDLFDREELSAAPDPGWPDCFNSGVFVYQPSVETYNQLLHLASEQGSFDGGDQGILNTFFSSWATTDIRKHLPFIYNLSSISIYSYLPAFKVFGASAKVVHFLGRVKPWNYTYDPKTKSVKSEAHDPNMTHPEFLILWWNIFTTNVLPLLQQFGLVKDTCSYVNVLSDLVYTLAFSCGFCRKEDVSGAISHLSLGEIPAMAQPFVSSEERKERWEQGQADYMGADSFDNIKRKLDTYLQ
How it was run: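 IC50 came from Hill fits of duplicate percent inhibition, based on control-normalized slopes of 340 nm NADH decline read each minute for 10 min. The reaction held recombinant hGYS2/GN1 (200 nM) with glycogen, UDP-glucose, G6P and PEP, plus PK/LDH coupling at pH 7.5 and 2.5% DMSO.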

hGYS1 enzyme (recombinant hGYS1/GN1 protein), sequence (P13807 whole entry): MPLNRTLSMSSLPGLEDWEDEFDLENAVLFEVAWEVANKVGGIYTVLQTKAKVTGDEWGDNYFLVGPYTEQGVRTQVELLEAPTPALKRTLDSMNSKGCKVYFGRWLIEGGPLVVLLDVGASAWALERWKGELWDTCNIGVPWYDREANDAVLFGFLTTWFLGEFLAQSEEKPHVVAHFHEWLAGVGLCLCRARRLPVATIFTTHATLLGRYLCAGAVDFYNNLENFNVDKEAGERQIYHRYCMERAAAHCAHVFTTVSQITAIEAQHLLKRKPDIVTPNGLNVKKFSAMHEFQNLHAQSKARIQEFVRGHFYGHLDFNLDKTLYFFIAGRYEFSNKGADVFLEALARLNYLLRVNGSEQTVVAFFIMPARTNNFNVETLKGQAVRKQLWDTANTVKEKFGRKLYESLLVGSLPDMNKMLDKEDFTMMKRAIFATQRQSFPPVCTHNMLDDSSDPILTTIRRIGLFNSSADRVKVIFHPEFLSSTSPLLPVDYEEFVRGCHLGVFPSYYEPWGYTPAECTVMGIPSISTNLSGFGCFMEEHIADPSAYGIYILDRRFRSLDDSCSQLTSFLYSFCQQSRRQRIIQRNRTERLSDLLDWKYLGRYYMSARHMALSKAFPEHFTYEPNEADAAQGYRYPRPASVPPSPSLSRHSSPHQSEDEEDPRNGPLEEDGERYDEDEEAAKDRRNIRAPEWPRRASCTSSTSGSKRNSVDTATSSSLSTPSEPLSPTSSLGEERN
hGYS1 enzyme (recombinant hGYS1/GN1 protein), sequence (P46976 whole entry partner): as the sequence (P46976 whole entry partner) above

Structure (SMILES)	IC50 [1] [nM]	IC50 [2] [nM]	IC50 [3] [nM]
O=C(N[C@@H](c1ccccc1)c1ccc(C2CC2)c(F)c1)[C@@H]1C[C@@H](F)CN1C(=O)Cn1c(=O)[nH]c2ccccc21 [Compound 456, (2S,4R)-N-[(S)-(4-cyclopropyl-3-fluorophenyl)(phenyl)methyl]-4-fluoro-1-[2-(2-oxo-2,3-dihydro-1H-1,3-benzodiazol-1-yl)acetyl]pyrrolidine-2-carboxamide]	55	1080	> 100000
Cc1ccc2cc(CC(=O)N3C[C@H](F)C[C@H]3C(=O)N[C@@H](c3ccccc3)c3ccc(C4CC4)c(F)c3)ccc2n1 [Compound 480, (2S,4R)-N-[(S)-(4-cyclopropyl-3-fluorophenyl)(phenyl)methyl]-4-fluoro-1-[2-(2-methylquinolin-6-yl)acetyl]pyrrolidine-2-carboxamide]	79	1120	> 100000
CC(C)c1ccc([C@@H](NC(=O)[C@@H]2C[C@@H](F)CN2C(=O)[C@@H](C)NC(=O)N(C)C)c2ccccc2)nc1 [Compound 274, (2S,4R)-1-[(2R)-2-[(dimethylcarbamoyl)amino]propanoyl]-4-fluoro-N-[(S)-phenyl[5-(propan-2-yl)pyridin-2-yl]methyl]pyrrolidine-2-carboxamide]	264	3230	> 100000
O=C(N[C@@H](c1ccccc1)c1ccc(C2CC2)c(F)n1)[C@@H]1C[C@@H](F)CN1C(=O)Cc1ncco1 [Compound 312, (2S,4R)-N-[(S)-(5-cyclopropyl-6-fluoropyridin-2-yl)(phenyl)methyl]-4-fluoro-1-[2-(1,3-oxazol-2-yl)acetyl]pyrrolidine-2-carboxamide]	97	830	> 100000
O=C(N[C@@H](c1ccccc1)c1ccc(C2CC2)c(F)c1)[C@@H]1C[C@@H](F)CN1C(=O)Cc1nnc(C(F)F)o1 [Compound 427, (2S,4R)-N-[(S)-(4-cyclopropyl-3-fluorophenyl)(phenyl)methyl]-1-{2-[5-(difluoromethyl)-1,3,4-oxadiazol-2-yl]acetyl}-4-fluoropyrrolidine-2-carboxamide]	165	1960	> 100000
CC(C)c1ccc([C@@H](NC(=O)[C@@H]2C[C@@H](F)CN2C(=O)Cc2noc(=O)n2C)c2ccccc2)nc1F [Compound 402, (2S,4R)-4-fluoro-N-[(S)-[6-fluoro-5-(propan-2-yl)pyridin-2-yl](phenyl)methyl]-1-[2-(4-methyl-5-oxo-4,5-dihydro-1,2,4-oxadiazol-3-yl)acetyl]pyrrolidine-2-carboxamide]	59	850	> 100000
CC(C)c1ccc([C@@H](NC(=O)[C@@H]2C[C@@H](F)CN2C(=O)Cc2ncco2)c2ccccc2)nc1 [Compound 270, (2S,4R)-4-fluoro-1-[2-(1,3-oxazol-2-yl)acetyl]-N-[(S)-phenyl[5-(propan-2-yl)pyridin-2-yl]methyl]pyrrolidine-2-carboxamide]	96	1400	> 100000
CCn1ncc(NCC(=O)N2C[C@H](F)C[C@H]2C(=O)N[C@@H](c2ccccc2)c2ccc(C3CC3)c(F)c2)n1 [Compound 470, (2S,4R)-N-[(S)-(4-cyclopropyl-3-fluorophenyl)(phenyl)methyl]-1-{2-[(2-ethyl-2H-1,2,3-triazol-4-yl)amino]acetyl}-4-fluoropyrrolidine-2-carboxamide]	82	960	> 100000
O=C(N[C@@H](c1ccccc1)c1ccc(C2CC2)c(F)c1)[C@@H]1C[C@@H](F)CN1C(=O)COC(=O)N1CCN(CC2CC2)CC1 [Compound 447, 2-[(2S,4R)-2-{[(S)-(4-cyclopropyl-3-fluorophenyl)(phenyl)methyl]carbamoyl}-4-fluoropyrrolidin-1-yl]-2-oxoethyl 4-(cyclopropylmethyl) piperazine-1-carboxylate]	96	5320	> 100000
O=C(N[C@@H](c1ccccc1)c1ccc(C2CC2)c(F)c1)[C@@H]1C[C@@H](F)CN1C(=O)CN1CCN(CC(F)(F)F)CC1=O [Compound 466, (2S,4R)-N-[(S)-(4-cyclopropyl-3-fluorophenyl)(phenyl)methyl]-4-fluoro-1-{2-[2-oxo-4-(2,2,2-trifluoroethyl)piperazin-1-yl]acetyl}pyrrolidine-2-carboxamide]	238	2320	> 100000

The next compounds have a lower IC50 [1] than those just listed; values first:

IC50 [1] [nM]	IC50 [2] [nM]	IC50 [3] [nM]	Structure (SMILES)
25	470	> 100000	CC(C)c1ccc([C@@H](NC(=O)[C@@H]2CC[C@H](C)N2C(=O)Cc2cnn[nH]2)c2ccccc2)nc1F [Compound 416, (2S,5S)-N-[(S)-[6-fluoro-5-(propan-2-yl)pyridin-2-yl](phenyl)methyl]-5-methyl-1-[2-(1H-1,2,3-triazol-5-yl)acetyl]pyrrolidine-2-carboxamide]
4	370	> 100000	Cc1cn(CC(=O)N2C[C@H](F)C[C@H]2C(=O)N[C@@H](c2ccccc2)c2ccc(C3CC(F)(F)C3)c(F)n2)c(=O)[nH]c1=O [Compound 506, (2S,4R)-N-[(S)-[5-(3,3-difluorocyclobutyl)-6-fluoropyridin-2-yl](phenyl)methyl]-4-fluoro-1-[2-(5-methyl-2,4-dioxo-1,2,3,4-tetrahydropyrimidin-1-yl)acetyl] pyrrolidine-2-carboxamide]
30	630	> 100000	CC(C)c1ccc([C@@H](NC(=O)[C@@H]2C[C@@H](F)CN2C(=O)Cn2cc(N3CCC3)nn2)c2ccccc2)nc1 [Compound 711, (2S,4R)-1-{2-[4-(azetidin-1-yl)-1H-1,2,3-triazol-1-yl]acetyl}-4-fluoro-N-[(S)-phenyl[5-(propan-2-yl)pyridin-2-yl]methyl]pyrrolidine-2-carboxamide]
11	230	> 100000	CCN(CC)c1cnn(CC(=O)N2C[C@H](F)C[C@H]2C(=O)N[C@@H](c2ccccc2)c2ccc(C(C)C)cn2)n1 [Compound 278, (2S,4R)-1-{2-[4-(diethylamino)-2H-1,2,3-triazol-2-yl]acety}-4-fluoro-N-N-[(S)-phenyl[5-(propan-2-yl)pyridin-2-yl]methyl]pyrrolidine-2-carboxamide]
41	830	> 100000	CC(C)c1ccc([C@@H](NC(=O)[C@@H]2C[C@@H](F)CN2C(=O)CNC(=O)N2CCC2)c2ccccc2)nc1 [Compound 265, (2S,4R)-1-{2-[(azetidine-1-carbonyl)amino]acetyl}-4-fluoro-N-[(S)-phenyl[5-(propan-2-yl)pyridin-2-yl]methyl]pyrrolidine-2-carboxamide]
32	720	> 100000	Cn1c(=O)n(CC(=O)N2C[C@H](F)C[C@H]2C(=O)N[C@@H](c2ccccc2)c2ccc(C3CC3)c(F)c2)c2ccccc21 [Compound 457, (2S,4R)-N-[(S)-(4-cyclopropyl-3-fluorophenyl)(phenyl)methyl]-4-fluoro-1-[2-(3-methyl-2-oxo-2,3-dihydro-1H-1,3-benzodiazol-1-yl)acetyl] pyrrolidine-2-carboxamide]
5	310	> 100000	Cc1cc(CC(=O)N2C[C@H](F)C[C@H]2C(=O)N[C@@H](c2ccccc2)c2ccc(C(C)C)c(F)n2)c[nH]c1=O [Compound 784, (2S,4R)-4-fluoro-N-[(S)-[6-fluoro-5-(propan-2-yl)pyridin-2-yl](phenyl)methyl]-1-[2-(5-methyl-6-oxo-1,6-dihydropyridin-3-yl)acetyl]pyrrolidine-2-carboxamide]
34	330	> 100000	CC(C)c1ccc([C@@H](NC(=O)[C@@H]2C[C@@H](F)CN2C(=O)Cn2nccn2)c2ccccc2)cc1 [Compound 17, (2S,4R)-4-fluoro-N-[(S)-phenyl[4-(propan-2-yl)phenyl]methyl]-1-[2-(2H-1,2,3-triazol-2-yl)acetyl]pyrrolidine-2-carboxamide]
11	170	> 100000	Cc1cn(CC(=O)N2C[C@H](F)C[C@H]2C(=O)N[C@@H](c2ccccc2)c2ccc(C(C)C)cc2)c(=O)[nH]c1=O [Compound 126, (2S,4R)-4-fluoro-1-[2-(5-methyl-2,4-dioxo-1,2,3,4-tetrahydropyrimidin-1-yl)acetyl]-N-[(S)-phenyl[4-(propan-2-yl)phenyl]methyl]pyrrolidine-2-carboxamide]
30	430	> 100000	CC1(c2ccc([C@@H](NC(=O)[C@@H]3C[C@@H](F)CN3C(=O)Cc3cnn[nH]3)c3ccccc3)cc2F)CCC1 [Compound 681, (2S,4R)-4-fluoro-N-[(S)-[3-fluoro-4-(1-methylcyclobutyl)phenyl](phenyl)methyl]-1-[2-(1H-1,2,3-triazol-5-yl)acetyl]pyrrolidine-2-carboxamide]
40	720	> 100000	CC1(c2ccc([C@@H](NC(=O)[C@@H]3C[C@@H](F)CN3C(=O)Cn3c(=O)[nH]c4ccccc43)c3ccccc3)nc2F)CC1 [Compound 599, (2S,4R)-4-fluoro-N-[(S)-[6-fluoro-5-(1-methylcyclopropyl)pyridin-2-yl](phenyl)methyl]-1-[2-(2-oxo-2,3-dihydro-1H-1,3-benzodiazol-1-yl)acetyl]pyrrolidine-2-carboxamide]
